From ChEMBL document CHEMBL4610059, “Isolation of triterpenoid saponins from Medicago sativa L. with neuroprotective activities” (2020)

Assays:
Assay type in all cases: functional
Settings in all cases: read-out: Activity
SH-SY5Y [1] = experiment: Neuroprotective activity against H2O2-induced cell death in human SH-SY5Y cells assessed as cell viability at 25 uM preincubated for 1 hr followed by H2O2 addition and measured after 4 hrs by CCK8 assay (reference value: 61.14 +/- 1.05%)
SH-SY5Y [2] = experiment: Neuroprotective activity against H2O2-induced cell death in human SH-SY5Y cells assessed as cell viability at 50 uM preincubated for 1 hr followed by H2O2 addition and measured after 4 hrs by CCK8 assay (reference value: 61.14 +/- 1.05%)
SH-SY5Y [3] = experiment: Neuroprotective activity against H2O2-induced cell death in human SH-SY5Y cells assessed as cell viability at 100 uM preincubated for 1 hr followed by H2O2 addition and measured after 4 hrs by CCK8 assay (reference value: 61.14 +/- 1.05%)

## COC(=O)[C@H]1O[C@@H](O[C@H]2[C@@H](O)C[C@@]3(C)[C@@H](CC[C@]4(C)[C@@H]3CC=C3[C@@H]5CC(C)(C)CC[C@]5(C(=O)O[C@@H]5O[C@H](CO)[C@@H](O)[C@H](O)[C@H]5O)CC[C@]34C)[C@]2(C)CO)[C@H](O)[C@@H](O)[C@@H]1O[C@@H]1OC[C@@H](O)[C@H](O)[C@H]1O
SH-SY5Y [1]
  viability at 25 µM: 62.1%
SH-SY5Y [2]
  viability at 50 µM: 64.8%
SH-SY5Y [3]
  viability at 100 µM: 73%

## COC(=O)[C@H]1O[C@@H](O[C@H]2[C@@H](O)C[C@@]3(C)[C@@H](CC[C@]4(C)[C@@H]3CC=C3[C@@H]5CC(C)(C)CC[C@]5(C(=O)O[C@@H]5O[C@H](CO)[C@@H](O)[C@H](O)[C@H]5O)CC[C@]34C)[C@]2(C)CO)[C@H](O[C@@H]2O[C@H](CO)[C@H](O)[C@H](O)[C@H]2O)[C@@H](O)[C@@H]1O
SH-SY5Y [1]
  viability at 25 µM: 60.7%
SH-SY5Y [2]
  viability at 50 µM: 61.2%
SH-SY5Y [3]
  viability at 100 µM: 67.1%

## COC(=O)[C@H]1O[C@@H](O[C@H]2CC[C@@]3(C)[C@@H](CC[C@]4(C)[C@@H]3CC=C3[C@@H]5CC(C)(C)CC[C@]5(C(=O)O[C@@H]5O[C@H](CO)[C@@H](O)[C@H](O)[C@H]5O)CC[C@]34C)[C@]2(C)CO)[C@H](O[C@@H]2O[C@H](CO)[C@@H](O)[C@H](O)[C@H]2O[C@@H]2OC[C@H](O)[C@H](O)[C@H]2O)[C@@H](O)[C@@H]1O
SH-SY5Y [1]
  viability at 25 µM: 61.9%
SH-SY5Y [2]
  viability at 50 µM: 62.9%
SH-SY5Y [3]
  viability at 100 µM: 63.1%

## CC1(C)CC[C@]2(C(=O)O)CC[C@]3(C)C(=CC[C@@H]4[C@@]5(C)C[C@H](O)[C@H](O)[C@@](C)(C(=O)O)[C@@H]5CC[C@]43C)[C@@H]2C1
SH-SY5Y [1]
  viability at 25 µM: 60.1%
SH-SY5Y [2]
  viability at 50 µM: 61.1%
SH-SY5Y [3]
  viability at 100 µM: 62.2%

## Cc1c(C)c2c(c(C)c1O)CCC(C)(C(=O)O)O2 (stereo not given) [TROLOX]
SH-SY5Y [1]
  viability at 25 µM: 70.2%
SH-SY5Y [2]
  viability at 50 µM: 75.3%
SH-SY5Y [3]
  viability at 100 µM: 78.2%
